Test results from patent publication US10221459B2, “Compositions and methods of treating cancer harboring PIKC3A mutations” (Case Western Reserve University, priority 2014, dated 2019).

Assays:
[1] = test system: DLD1 PIK3CA mutant and WT clones; assay: Growth inhibition in tissue culture, DLD1 PIK3CA mutant vs WT clones; format: cell-based; conditions: for sensitivity to growth inhibition, PIK3CA-/mut vs PIK3CA WT/- cells: DLD1, various doses
Excerpt: (§1) FIGS. 9(A-C) illustrate graphs and an immunoblot showing aminooxyacetate (AOA) inhibits PIK3CA mutant tumor growth. (A) IC50 of AOA in HCT116 and DLD1 PIK3CA WT and mutant clones. (B) Body weights of the mice with xenograft established from the indicated CRC cells before and after AOA treatment. N=5 mice in each group. (C) Western blot analyses of GPT2 protein levels in the indicated cell lines.
(§2) To test if PIK3CA mutations render cancer cell sensitive to these inhibitors, we treated PIK3CA-/mut, PIK3CA WT/-HCT116 and DLD1 colon cancer cells with various doses of EGCG and BPTES.

[2] = test system: HCT116 PIK3CA mutant and WT clones; assay: Growth inhibition in tissue culture, HCT116 PIK3CA mutant vs WT clones; format: cell-based; conditions: for sensitivity to growth inhibition, PIK3CA-/mut vs PIK3CA WT/- cells: HCT116, various doses
Excerpt: as §1, §2

[3] = test system: ATF4 protein levels in the HCT116 PIK3CA mutant clone; assay: ATF4 protein levels after inhibitor exposure (immunoblot); format: cell-based; conditions: Western blot (FIG. 6C)
Procedure: Ubiquitination of endogenous ATF4 (A). Ubiquitination of ectopically expressed Flag-tagged ATF4 and HA-tagged ubiquitin (B).
Cells were lysed in RIPA buffer [10 mM Tris (pH 7.4), 150 mM NaCl, 5 mM EDTA (pH 8.0), 0.1% SDS, 1% Triton-X100, 1 mM DTT, 1 mM PMSF, complete Protease Inhibitor Cocktail tablet (Roche); supplemented with phosphatase inhibitors (1 mM Na3VO4, 50 mM NaF, 1 mM β-glycerophosphate, 20 mM sodium pyrophosphate)]. Lysates were then cleared by centrifugation at 14,000 rpm for 10 min and protein concentration in supernatants was determined by the BCA protein assay kit (Pierce). Equal amounts of total protein were used for immunoblotting. For immunoprecipitation (IP), cells were lysed as mentioned above. Cleaned cell lysate incubated with antibody for one hour, and then protein A and/or protein G for one hour. Protein A/G beads were washed with lysis buffer three times, and then boiled with SDS-loading buffer followed with immunoblotting.

HCT116 xenograft tumors = assay: Xenograft study, HCT116 (parental cells); format: in vivo, mice; conditions: for combinational effect with AOA: drug combined with AOA (10 mg/kg), HCT116 xenograft; for tumor regression: alone or in combination
Excerpt: (§3) FIGS. 4(A-D) illustrate plots showing aminooxyacetate (AOA) inhibits xenograft tumor growth of PIK3CA mutant CRCs but not PIK3CA WT CRCs. (A-B) AOA inhibits growth of xenograft formed by PIK3CA mutant clones but not PIK3CA WT clones. (A) Clones derived from HCT116 cells; (B) Clones derived from DLD1. (C) AOA inhibits growth of xenograft tumors formed by four CRC cell lines harboring PIK3CA mutations. […] N=5 mice in each experimental group. Data are presented as mean±SEM.
FIGS. 10(A-B) illustrate plots showing AOA synergizes with 5-FU to inhibit growth of HCT116 xenograft tumors.
FIGS. 12(A-B) illustrate images and a plot showing the combination of CB-839 and 5-FU shrinks HCT116 xenograft tumors.
(§4) Animal experiments were approved by the Case Western Reserve University Animal Care and Use Committee. As described in, 3 million cells were injected subcutaneously into the flanks of 4 to 6-week-old female athymic nude mice. Mice were randomly assigned into treatment groups (5 mice/group). When average tumor volume reached 100 mm3, mice were treated with vehicle control, 5 mg/kg or 10 mg/kg of AOA every day per IP (intraperitoneal) injection. Tumor volumes were measured with an electronic caliper and calculated as length×width^2/2.

RKO xenograft tumors = assay: Xenograft study, RKO; format: in vivo, mice; conditions: RKO (PIK3CA mutant); AOA every day IP
Excerpt: as §3, §4

Recombinant GPT2 = molecular target: T1, Recombinant GPT2 (Homo sapiens, UniProt Q8TD30); assay: GPT2 enzymatic assay (colorimetric pyruvate detection); format: biochemical; conditions: recombinant GPT2 mixed with α-KG and alanine; read-out: IC50 of AOA to GPT2
T1 sequence (Q8TD30 1-523): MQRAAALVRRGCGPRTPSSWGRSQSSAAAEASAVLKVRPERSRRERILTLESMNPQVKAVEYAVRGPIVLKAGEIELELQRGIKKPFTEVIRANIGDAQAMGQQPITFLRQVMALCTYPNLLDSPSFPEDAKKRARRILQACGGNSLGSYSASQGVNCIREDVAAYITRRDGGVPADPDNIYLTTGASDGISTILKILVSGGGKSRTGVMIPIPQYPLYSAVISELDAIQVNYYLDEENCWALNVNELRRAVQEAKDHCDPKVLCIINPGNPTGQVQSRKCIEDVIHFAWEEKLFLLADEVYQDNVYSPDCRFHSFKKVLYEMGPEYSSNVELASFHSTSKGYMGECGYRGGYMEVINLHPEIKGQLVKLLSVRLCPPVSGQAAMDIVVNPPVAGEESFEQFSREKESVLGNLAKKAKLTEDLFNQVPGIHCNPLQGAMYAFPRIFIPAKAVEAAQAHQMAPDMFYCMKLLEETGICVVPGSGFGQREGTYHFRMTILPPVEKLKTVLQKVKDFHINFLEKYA
Procedure: (§5) FIGS. 11(A-C) illustrate plots and graph showing (A) enzyme kinetics of GPT2. Recombinant GPT2 was mixed with α-KG and alanine. The product pyruvate was detected by a colorimetric assay. (B) IC50 of AOA to GPT2. (C) Relative amounts of α-KG. Xenograft tumors were treated with 10 mg/kg of AOA or vehicle. α-KG in a untreated tumor was set as 100%.
(§6) However, AOA is pan-transaminase inhibitor.

DLD1 xenograft tumors = assay: Xenograft study, DLD1 (parental cells); format: in vivo, mice; conditions: DLD1 parental cells (PIK3CA mutant); AOA every day IP
Excerpt: as §3, §4

[4] = Body weights of xenograft mice before and after AOA treatment; format: in vivo; conditions: xenograft mice treated with AOA
Excerpt: as §1, §4

GPT activity = GPT activity in treated xenograft tumors assayed by amounts of α-KG; format: in vivo, mice; conditions: Mus musculus, AOA 10 mg/kg
Procedure: as §5, §6

[5] = test system: DLD1 PIK3CA mutant clone xenograft; assay: Xenograft study, DLD1 PIK3CA mutant clone; format: in vivo; conditions: DLD1 PIK3CA mutant clone in nude mice; AOA 5 or 10 mg/kg every day IP
Excerpt: as §3, §4

[6] = test system: DLD1 PIK3CA WT clone xenograft; assay: Xenograft study, DLD1 PIK3CA WT clone; format: in vivo; conditions: isogenic DLD1 PIK3CA WT clone in nude mice; AOA every day IP
Excerpt: as §3, §4

[7] = test system: HCT116 PIK3CA mutant clone xenograft; assay: Xenograft study, HCT116 PIK3CA mutant clone; format: in vivo; conditions: HCT116 PIK3CA mutant clone in nude mice; AOA 5 or 10 mg/kg every day IP
Excerpt: as §3, §4

[8] = test system: HCT116 PIK3CA WT clone xenograft; assay: Xenograft study, HCT116 PIK3CA WT clone; format: in vivo; conditions: isogenic HCT116 PIK3CA WT clone in nude mice; AOA every day IP
Excerpt: as §3, §4

HT29 xenograft tumors = assay: Xenograft study, HT29; format: in vivo, mice; conditions: HT29 (PIK3CA mutant); AOA every day IP
Excerpt: as §3, §4

LOVO xenograft tumors = assay: Xenograft study, LOVO; format: in vivo, mice; conditions: LOVO (WT PIK3CA); AOA every day IP
Excerpt: as §3, §4

SW480 xenograft tumors = assay: Xenograft study, SW480; format: in vivo, mice; conditions: SW480 (WT PIK3CA); AOA every day IP
Excerpt: as §3, §4

[9] = HCT116 (PIK3CA mutant CRC) xenograft
[10] = single agent, HCT116 (PIK3CA mutant CRC) xenograft

O=C(O[C@@H]1Cc2c(O)cc(O)cc2O[C@@H]1c1cc(O)c(O)c(O)c1)c1cc(O)c(O)c(O)c1 [EGCG, Epigallocatechin gallate]
sensitivity to growth inhibition, PIK3CA-/mut vs PIK3CA WT/- cells [1]: more sensitive to growth inhibition
sensitivity to growth inhibition, PIK3CA-/mut vs PIK3CA WT/- cells [2]: more sensitive to growth inhibition

O=C(Cc1ccccc1)Nc1nnc(CCSCCc2nnc(NC(=O)Cc3ccccc3)s2)s1 [BPTES]
sensitivity to growth inhibition, PIK3CA-/mut vs PIK3CA WT/- cells [1]: more sensitive to growth inhibition
sensitivity to growth inhibition, PIK3CA-/mut vs PIK3CA WT/- cells [2]: more sensitive to growth inhibition

Cc1ccc(-c2c(C(=O)CF)n(CCCO)c3ncnc(N)c23)cc1 [FMK]
ATF4 protein levels [3]: reduced ATF4 protein levels

CCc1c2c(nc3ccc(OC(=O)N4CCC(N5CCCCC5)CC4)cc13)-c1cc3c(c(=O)n1C2)COC(=O)[C@]3(O)CC [irinotecan]
combinational effect with AOA (HCT116 xenograft tumors): none of the other drug showed any combinational effect with AOA

Cn1c(=O)n(-c2ccc(C(C)(C)C#N)cc2)c2c3cc(-c4cnc5ccccc5c4)ccc3ncc21 [DEZ235]
ATF4 protein levels [3]: reduced ATF4 protein levels

O=c1[nH]cc(F)c(=O)[nH]1 [5-FU, 5-fluorouracil]
tumor regression (HCT116 xenograft tumors; [9]): neither induced tumor regression
xenograft tumor growth (HCT116 xenograft tumors; [10]): inhibited tumor growth to various extents

CCn1c(-c2nonc2N)nc2c(C#CC(C)(C)O)ncc(OC[C@H]3CCCNC3)c21 [GSK690693]
ATF4 protein levels [3]: neither an AKT inhibitor (GSK690693) nor an inhibitor (CHIR-99021) of GSK3β(a known downstream effector of AKT) had any effect on ATF4 protein levels

NOCC(=O)O [AOA, aminooxyacetate]
xenograft tumor growth (RKO xenograft tumors): inhibited xenograft tumor growth
IC50 (Recombinant GPT2): 980 nM
xenograft tumor growth (DLD1 xenograft tumors): inhibited xenograft tumor growth
weight loss of treated mice [4]: No weight loss was observed
inhibition at 10 mg/kg (GPT activity): ~30%
xenograft tumor growth [5]: significantly inhibited the growth
sensitivity to AOA treatment, PIK3CA mutant clones vs WT clones ([1]; DLD1 clones): more sensitive to AOA treatment than the WT clones
xenograft tumor growth [6]: had no effect
xenograft tumor growth (HCT116 xenograft tumors; HCT116 parental cells (PIK3CA mutant), AOA every day IP): inhibited xenograft tumor growth
xenograft tumor growth [7]: significantly inhibited the growth
xenograft tumor growth [8]: had no effect
sensitivity to AOA treatment, PIK3CA mutant clones vs WT clones ([2]; HCT116 clones): more sensitive to AOA treatment than the WT clones
xenograft tumor growth (HT29 xenograft tumors): inhibited xenograft tumor growth
xenograft tumor growth (LOVO xenograft tumors): had no effect on xenograft tumor growth
xenograft tumor growth (SW480 xenograft tumors): had no effect on xenograft tumor growth

CNc1nc(-c2ccc3c(N)n[nH]c3c2)cc(N2C[C@@H](C(=O)NC3CCCCC3)CC[C@H]2C)n1 [GSK2334470]
ATF4 protein levels [3]: reduced ATF4 protein levels

CC(C)CCN1c2nc(Nc3cc(F)c(O)c(F)c3)ncc2N(C)C(=O)C1C (stereo not shown) [BI-D1870]
ATF4 protein levels [3]: reduced ATF4 protein levels

CNC(=O)c1cc(Oc2ccc(NC(=O)Nc3ccc(Cl)c(C(F)(F)F)c3)c(F)c2)ccn1 [regorafenib]
combinational effect with AOA (HCT116 xenograft tumors): none of the other drug showed any combinational effect with AOA

O=C1[O][Pt]2([NH][C@@H]3CCCC[C@H]3[NH]2)[O]C1=O [oxaliplatin]
combinational effect with AOA (HCT116 xenograft tumors): none of the other drug showed any combinational effect with AOA

O=C(Cc1cccc(OC(F)(F)F)c1)Nc1ccc(CCCCc2nnc(NC(=O)Cc3ccccn3)s2)nn1 [CB-839]
tumor regression (HCT116 xenograft tumors; [9]): neither induced tumor regression
xenograft tumor growth (HCT116 xenograft tumors; [10]): inhibited tumor growth to various extents
